Read-outs that look alike come from different tables or passages of the source.
Key:
Format in all cases: cell-based
[1] = test system: HCV 4a Rluc cells (NS5A chimeric genotype 1b Con1 replicon with genotype 4a NS5A gene); assay: microbe, parasite or virus in culture; conditions: Hepatitis C virus, read-out: 4a
In short: (§1)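 Replicon cells stably carrying the listed RLuc-encoding dicistronic replicons were seeded and treated with DMSO serial dilutions of compound (10 mM stocks) diluted into culture medium. After 72 h, cells were lysed and Renilla luciferase activity measured. EC50 was derived by non-linear regression.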

[2] = test system: HCV 3a RLuc cells (NS5A chimeric genotype 1b Con1 replicon with consensus genotype 3a NS5A gene); assay: microbe, parasite or virus in culture; conditions: Hepatitis C virus
In short: as §1

[3] = test system: HCV 1b RLuc cells (dicistronic genotype 1b Con1 replicon, RLuc reporter); assay: microbe, parasite or virus in culture; conditions: Hepatitis C virus, read-out: 1b (nM)
In short: as §1

[4] = test system: HCV 2a JFH-1 Rluc cells (dicistronic genotype 2a JFH-1 replicon, RLuc reporter); assay: microbe, parasite or virus in culture; conditions: Hepatitis C virus, read-out: 2a JFH
In short: as §1

[5] = test system: HCV 2b Rluc cells (NS5A chimeric genotype 2a JFH-1 replicon with genotype 2b MD2b-1 NS5A gene, M31 present); assay: microbe, parasite or virus in culture; conditions: Hepatitis C virus, read-out: 2b
In short: as §1

[6] = test system: HCV 1a RLuc cells (dicistronic genotype 1a H77 replicon, RLuc reporter); assay: microbe, parasite or virus in culture; conditions: Hepatitis C virus, read-out: 1a
In short: as §1

[7] = test system: HCV 2a Rluc cells (NS5A chimeric genotype 2a JFH-1 replicon with genotype 2a J6 strain NS5A gene, M31 present); assay: HCV replicon reporter assay, genotype 2a J6 (M31 present); conditions: Hepatitis C virus, read-out: 2a J6
In short: as §1

[8] = read-out: 3a, genotype 3a replicon
[9] = read-out: 3a, genotype 3a NS5A chimeric replicon
[10] = genotype 2a JFH-1 RLuc replicon

CCC(=O)N[C@@H](C(=O)N1CCC[C@H]1c1ncc(-c2ccc(-c3ccc4c(ccc5nc([C@@H]6C[C@H](COC)CN6C(=O)[C@@H](NC(=O)OC)C(C)C)[nH]c54)c3)cc2)[nH]1)c1ccccc1 [Example 479]
EC50 [1]: 0.001 to 0.99 nM
EC50 [2, 8]: 0.001 to 0.99 nM
EC50 [3]: 0.034 nM
EC50 ([4]; genotype 2a JFH-1 replicon): 0.001 to 0.999 nM
EC50 [5]: 0.001 to 0.999 nM
EC50 ([6]; genotype 1a replicon): 0.001 to 0.999 nM
EC50 [7]: 0.001 to 0.999 nM

COC[C@@H]1C[C@@H](c2nc3c([nH]2)-c2cc4c(cc2CC3)-c2ccc(-c3cnc([C@@H]5CCCN5C(=O)[C@@H](NC(=O)OC)C(C)C)[nH]3)cc2CO4)N(C(=O)[C@@H](NC(=O)OC)C(C)C)C1 [Example 493]
EC50 [1]: 0.001 to 0.99 nM
EC50 [2, 9]: 0.001 to 0.99 nM
EC50 [3]: 0.03 nM
EC50 [4, 10]: 0.001 to 0.999 nM
EC50 [5]: 0.001 to 0.999 nM
EC50 ([6]; genotype 1a H77 RLuc replicon): 0.001 to 0.999 nM
EC50 [7]: > 44 nM

COC(=O)N[C@H](C(=O)N1[C@@H]2CC[C@@H](C2)[C@H]1c1nc2ccc3cc(-c4ccc5c(ccc6nc([C@@H]7CCCN7C(=O)[C@H](NC(=O)C(C)(C)O)c7ccccc7)[nH]c65)c4)ccc3c2[nH]1)C(C)C [Example 357]
EC50 [1]: 0.001 to 0.99 nM
EC50 [2, 8]: 0.001 to 0.99 nM
EC50 [3]: 0.044 nM
EC50 ([4]; genotype 2a JFH-1 replicon): 0.001 to 0.999 nM
EC50 [5]: 0.001 to 0.999 nM
EC50 ([6]; genotype 1a replicon): 0.001 to 0.999 nM
EC50 [7]: 0.001 to 0.999 nM

COC[C@H]1C[C@@H](c2ncc(-c3ccc(-c4ccc5c(ccc6nc([C@@H]7C[C@H](COC)CN7C(=O)[C@@H](NC(=O)OC)C(C)C)[nH]c65)c4)cc3)[nH]2)N(C(=O)[C@@H](NC(=O)OC)C(C)C)C1 [Example 440]
EC50 [1]: 0.001 to 0.99 nM
EC50 [2, 8]: 1 to 4.99 nM
EC50 [3]: 0.048 nM
EC50 ([4]; genotype 2a JFH-1 replicon): 0.001 to 0.999 nM
EC50 [5]: 1 to 44 nM
EC50 ([6]; genotype 1a replicon): 0.001 to 0.999 nM
EC50 [7]: 0.001 to 0.999 nM

COC(=O)N[C@H](C(=O)N1CCC[C@H]1c1ncc(-c2ccc3c4ccc(-c5cnc([C@@H]6CCCN6C(=O)[C@@H](NC(=O)OC)C(C)C)[nH]5)cc4c4ccccc4c3c2)[nH]1)C(C)C [Example 22]
EC50 [1]: 0.001 to 0.99 nM
EC50 ([2]; read-out: 3a, Table 1, genotype 3a NS5A chimeric replicon): 0.001 to 0.99 nM
EC50 ([3]; 72 h): 0.005 nM
EC50 ([4]; 72 h, Table 1, genotype 2a JFH-1 replicon, 72 hours): 0.001 to 0.999 nM
EC50 [5]: > 44 nM
EC50 ([6]; 72 h, Table 1, genotype 1a H77 replicon, 72 hours): 0.001 to 0.999 nM
EC50 [7]: > 44 nM

COC(=O)N[C@H](C(=O)N1CCCC1c1ncc(-c2ccc3c(c2)COc2cc4c(ccc5nc([C@@H]6C[C@@H]7CCC[C@@H]7N6C(=O)[C@@H](NC(=O)OC)C(C)C)[nH]c54)cc2-3)[nH]1)C(C)C (stereo partly shown) [Example 576]
EC50 [1]: 0.001 to 0.99 nM
EC50 [2, 9]: 0.001 to 0.99 nM
EC50 [3]: 0.014 nM
EC50 [4, 10]: 0.001 to 0.999 nM
EC50 [5]: 0.001 to 0.999 nM
EC50 ([6]; genotype 1a H77 RLuc replicon): 0.001 to 0.999 nM
EC50 [7]: 1 to 44 nM

COC(=O)N[C@H](C(=O)N1[C@@H]2CC[C@@H](C2)[C@H]1c1nc2ccc3cc(-c4ccc5c(ccc6nc([C@@H]7CCCN7C(=O)[C@@H](NC(=O)OC)C7CCOCC7)[nH]c65)c4)ccc3c2[nH]1)C(C)C [Example 298]
EC50 [1]: 0.001 to 0.99 nM
EC50 [2, 8]: 0.001 to 0.99 nM
EC50 [3]: 0.077 nM
EC50 ([4]; genotype 2a JFH-1 replicon): 0.001 to 0.999 nM
EC50 [5]: 1 to 44 nM
EC50 ([6]; genotype 1a replicon): 0.001 to 0.999 nM
EC50 [7]: 0.001 to 0.999 nM

CC(C)C(=O)N[C@@H](C(=O)N1CCC[C@H]1c1ncc(-c2cc3c4c(c2)OCc2cc(-c5cnc([C@@H]6CCCN6C(=O)[C@H](NC(=O)C(C)C)c6ccccc6)[nH]5)cc(c2-4)OC3)[nH]1)c1ccccc1 [Example 468]
EC50 [1]: 0.001 to 0.99 nM
EC50 [2, 8]: 0.001 to 0.99 nM
EC50 [3]: 0.113 nM
EC50 ([4]; genotype 2a JFH-1 replicon): 0.001 to 0.999 nM
EC50 [5]: 0.001 to 0.999 nM
EC50 ([6]; genotype 1a replicon): 0.001 to 0.999 nM
EC50 [7]: 0.001 to 0.999 nM

O=C(N[C@@H](C(=O)N1CCC[C@H]1c1ncc(-c2cc3c4c(c2)OCc2cc(-c5cnc([C@@H]6CCCN6C(=O)[C@H](NC(=O)C6CCCC6)c6ccccc6)[nH]5)cc(c2-4)OC3)[nH]1)c1ccccc1)C1CCCC1 [Example 489]
EC50 [1]: 0.001 to 0.99 nM
EC50 [2, 9]: 0.001 to 0.99 nM
EC50 [3]: 0.048 nM
EC50 [4, 10]: 0.001 to 0.999 nM
EC50 [5]: 0.001 to 0.999 nM
EC50 ([6]; genotype 1a H77 RLuc replicon): 0.001 to 0.999 nM
EC50 [7]: 0.001 to 0.999 nM

COC(=O)N[C@H](C(=O)N1C[C@@H](C)C[C@H]1c1ncc(-c2cc3c4c(c2)OCc2cc(-c5cnc([C@@H]6C[C@H](C)CN6C(=O)[C@H](NC(=O)OC)c6ccccc6)[nH]5)cc(c2-4)OC3)[nH]1)C(C)C [Example 564]
EC50 [1]: 0.001 to 0.99 nM
EC50 [2, 9]: 0.001 to 0.99 nM
EC50 [3]: 0.012 nM
EC50 [4, 10]: 0.001 to 0.999 nM
EC50 [5]: 0.001 to 0.999 nM
EC50 ([6]; genotype 1a H77 RLuc replicon): 0.001 to 0.999 nM
EC50 [7]: 1 to 44 nM

From patent publication US10344019B2 (priority 2010, dated 2019)
